PubChem BioAssay (NCI)
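Dose response: 5 concentrations. Exposure: 48 h. Format: 96-well plates. Endpoint: linear interpolation; highest concentration if not reached. TGI: concentration producing complete growth inhibition.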

How the values were obtained:
Assay in all cases: inhibition of tumour cell growth, NCI panel, 48 h
786-0 renal = test system: 786-0 renal
A498 renal = test system: A498 renal
ACHN renal = test system: ACHN renal
BT-549 breast = test system: BT-549 breast
CAKI-1 renal = test system: CAKI-1 renal
CCRF-CEM leukemia = test system: CCRF-CEM leukemia
COLO 205 colon = test system: COLO 205 colon
DU-145 prostate = test system: DU-145 prostate
EKVX NSCLC = test system: EKVX NSCLC
HCC-2998 colon = test system: HCC-2998 colon
HCT-116 colon = test system: HCT-116 colon
HCT-15 colon = test system: HCT-15 colon
HL-60(TB) leukemia = test system: HL-60(TB) leukemia
HOP-62 NSCLC = test system: HOP-62 NSCLC
HOP-92 NSCLC = test system: HOP-92 NSCLC
HS 578T breast = test system: HS 578T breast
IGROV1 ovarian = test system: IGROV1 ovarian
K-562 leukemia = test system: K-562 leukemia
KM12 colon = test system: KM12 colon
LOX IMVI melanoma = test system: LOX IMVI melanoma
M14 melanoma = test system: M14 melanoma
MCF7 breast = test system: MCF7 breast
MDA-MB-231 breast = test system: MDA-MB-231 breast
MDA-MB-435 = test system: MDA-MB-435
MDA-N = test system: MDA-N
MOLT-4 leukemia = test system: MOLT-4 leukemia
NCI-H226 lung = test system: NCI-H226 lung
NCI-H23 lung = test system: NCI-H23 lung
NCI-H460 lung = test system: NCI-H460 lung
NCI-H522 lung = test system: NCI-H522 lung
NCI/ADR-RES ovarian = test system: NCI/ADR-RES ovarian
OVCAR-3 ovarian = test system: OVCAR-3 ovarian
OVCAR-4 ovarian = test system: OVCAR-4 ovarian
OVCAR-5 ovarian = test system: OVCAR-5 ovarian
OVCAR-8 ovarian = test system: OVCAR-8 ovarian
PC-3 prostate = test system: PC-3 prostate
RPMI-8226 leukemia = test system: RPMI-8226 leukemia
RXF 393 renal = test system: RXF 393 renal
SF-268 CNS = test system: SF-268 CNS
SF-295 CNS = test system: SF-295 CNS
SF-539 CNS = test system: SF-539 CNS
SK-MEL-2 melanoma = test system: SK-MEL-2 melanoma
SK-MEL-5 melanoma = test system: SK-MEL-5 melanoma
SK-OV-3 ovarian = test system: SK-OV-3 ovarian
SN12C renal = test system: SN12C renal
SNB-19 CNS = test system: SNB-19 CNS
SNB-75 CNS = test system: SNB-75 CNS
SR leukemia = test system: SR leukemia
SW-620 colon = test system: SW-620 colon
T-47D breast = test system: T-47D breast
TK-10 renal = test system: TK-10 renal
U251 CNS = test system: U251 CNS
UACC-257 melanoma = test system: UACC-257 melanoma
UACC-62 melanoma = test system: UACC-62 melanoma
UO-31 renal = test system: UO-31 renal

Work on `S=C1NC2=C(COC/C2=C\c2ccccc2Cl)C(c2ccccc2Cl)N1` (stereo not given) yielded a TGI (786-0 renal) of over 100 µM, a TGI (A498 renal) of over 100 µM and a TGI (ACHN renal) of over 100 µM. For the same molecule, the TGI (BT-549 breast) was over 100 µM, the TGI (CAKI-1 renal) was over 100 µM and the TGI (CCRF-CEM leukemia) was 45.1 µM. For the same molecule, the TGI (COLO 205 colon) was 33.5 µM, the TGI (DU-145 prostate) was over 100 µM and the TGI (EKVX NSCLC) was over 100 µM. The TGI (HCC-2998 colon) was 89 µM, the TGI (HCT-116 colon) was 80.6 µM and the TGI (HCT-15 colon) was over 100 µM. It also gave a TGI (HL-60(TB) leukemia) of 34.4 µM, a TGI (HOP-62 NSCLC) of over 100 µM and a TGI (HOP-92 NSCLC) of over 100 µM. The TGI (HS 578T breast) was over 100 µM, the TGI (IGROV1 ovarian) was over 100 µM and the TGI (K-562 leukemia) was over 100 µM. It also gave a TGI (KM12 colon) of 28.6 µM, a TGI (LOX IMVI melanoma) of 70.7 µM and a TGI (M14 melanoma) of over 100 µM. For the same molecule, the TGI (MCF7 breast) was 63.1 µM, the TGI (MDA-MB-231 breast) was over 100 µM and the TGI (MDA-MB-435) was over 100 µM. It also gave a TGI (MDA-N) of over 100 µM, a TGI (MOLT-4 leukemia) of 44.5 µM and a TGI (NCI-H226 lung) of over 100 µM. The TGI (NCI-H23 lung) was over 100 µM, the TGI (NCI-H460 lung) was over 100 µM and the TGI (NCI-H522 lung) was over 100 µM. For the same molecule, the TGI (NCI/ADR-RES ovarian) was over 100 µM, the TGI (OVCAR-3 ovarian) was over 100 µM and the TGI (OVCAR-4 ovarian) was over 100 µM. The TGI (OVCAR-5 ovarian) was over 100 µM, the TGI (OVCAR-8 ovarian) was over 100 µM and the TGI (PC-3 prostate) was over 100 µM. It also gave a TGI (RPMI-8226 leukemia) of over 100 µM, a TGI (RXF 393 renal) of over 100 µM and a TGI (SF-268 CNS) of over 100 µM. The TGI (SF-295 CNS) was over 100 µM, the TGI (SF-539 CNS) was over 100 µM and the TGI (SK-MEL-2 melanoma) was 67.1 µM. The TGI (SK-MEL-5 melanoma) was 34.6 µM, the TGI (SK-OV-3 ovarian) was over 100 µM and the TGI (SN12C renal) was over 100 µM. It also gave a TGI (SNB-19 CNS) of over 100 µM, a TGI (SNB-75 CNS) of over 100 µM and a TGI (SR leukemia) of 20.9 µM. It also gave a TGI (SW-620 colon) of over 100 µM, a TGI (T-47D breast) of over 100 µM and a TGI (TK-10 renal) of over 100 µM. For the same molecule, the TGI (U251 CNS) was over 100 µM, the TGI (UACC-257 melanoma) was over 100 µM and the TGI (UACC-62 melanoma) was over 100 µM. The TGI (UO-31 renal) was over 100 µM.
